Laboratory results reported in PubChem BioAssay AID1963980 (Molecular Pharmacology Branch, DTP, NCI, 2024).

Test system: 475296-252-R-J1-PDC spheroid viability
Assay: Anticancer human tumor 475296-252-R-J1-PDC patient-derived rectal carcinoma cell line growth inhibition [PI3K]
Details: spheroids with HUVEC and MSC; for IC50: curve of first compound; for viability, T/C: stronger effect = lower value; active = viability on the fitted dose curve at most 10% of control; inactive = the rest
How it was run: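 Combination activity was assessed by viability in multicellular tumor spheroids carrying HUVEC and MSC components. Agents were tested with PI3K inhibitors from a Cmax-based top dose (or 10 microM) downward in half-log increments.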

[1] = second compound 0.0316 µM, first compound 0.0316 µM
[2] = second compound 0.0316 µM, first compound 0.1 µM
[3] = second compound 0.0316 µM, first compound 0.316 µM
[4] = second compound 0.0316 µM, first compound 1 µM
[5] = second compound 0.0316 µM, first compound 3.16 µM
[6] = second compound 0.0316 µM, first compound 10 µM
[7] = second compound 0.1 µM, first compound 0.0316 µM
[8] = second compound 0.1 µM, first compound 0.1 µM
[9] = second compound 0.1 µM, first compound 0.316 µM
[10] = second compound 0.1 µM, first compound 1 µM
[11] = second compound 0.1 µM, first compound 3.16 µM
[12] = second compound 0.1 µM, first compound 10 µM
[13] = second compound 0.316 µM, first compound 0.0316 µM
[14] = second compound 0.316 µM, first compound 0.1 µM
[15] = second compound 0.316 µM, first compound 0.316 µM
[16] = second compound 0.316 µM, first compound 1 µM
[17] = second compound 0.316 µM, first compound 3.16 µM
[18] = second compound 0.316 µM, first compound 10 µM
[19] = second compound 1 µM, first compound 0.0316 µM
[20] = second compound 1 µM, first compound 0.1 µM
[21] = second compound 1 µM, first compound 0.316 µM
[22] = second compound 1 µM, first compound 1 µM
[23] = second compound 1 µM, first compound 3.16 µM
[24] = second compound 1 µM, first compound 10 µM
[25] = second compound 3.16 µM, first compound 0.0316 µM
[26] = second compound 3.16 µM, first compound 0.1 µM
[27] = second compound 3.16 µM, first compound 0.316 µM
[28] = second compound 3.16 µM, first compound 1 µM
[29] = second compound 3.16 µM, first compound 3.16 µM
[30] = second compound 3.16 µM, first compound 10 µM
[31] = second compound 10 µM, first compound 0.0316 µM
[32] = second compound 10 µM, first compound 0.1 µM
[33] = second compound 10 µM, first compound 0.316 µM
[34] = second compound 10 µM, first compound 1 µM
[35] = second compound 10 µM, first compound 3.16 µM
[36] = second compound 10 µM, first compound 10 µM
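Note: spheroids exposed to agents for seven days before readout.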

C=CC(=O)N1CCN(c2nc(=O)n(-c3c(C)ccnc3C(C)C)c3nc(-c4c(O)cccc4F)c(F)cc23)C(C)C1 (stereo not drawn) + CC(Nc1ncnc2nc[nH]c12)c1cc2cccc(Cl)c2c(=O)n1-c1ccccc1
> 10 µM: IC50 (second compound 0.0316 µM) | IC50 (second compound 0.1 µM) | IC50 (second compound 0.316 µM) | IC50 (second compound 1 µM) | IC50 (second compound 3.16 µM) | IC50 (second compound 10 µM)
inactive: viability, T/C [1] 110% | viability, T/C [2] 98.7% | viability, T/C [3] 103% | viability, T/C [4] 89% | viability, T/C [5] 102% | viability, T/C [6] 103% | viability, T/C [7] 95.7% | viability, T/C [8] 92% | viability, T/C [9] 105% | viability, T/C [10] 87.9% | viability, T/C [11] 109% | viability, T/C [12] 101% | viability, T/C [13] 93.9% | viability, T/C [14] 90.2% | viability, T/C [15] 87.4% | viability, T/C [16] 96% | viability, T/C [17] 106% | viability, T/C [18] 116% | viability, T/C [19] 95.3% | viability, T/C [20] 97.2% | viability, T/C [21] 91.8% | viability, T/C [22] 92.1% | viability, T/C [23] 106% | viability, T/C [24] 93.5% | viability, T/C [25] 96.2% | viability, T/C [26] 92.9% | viability, T/C [27] 99.4% | viability, T/C [28] 107% | viability, T/C [29] 103% | viability, T/C [30] 90.2% | viability, T/C [31] 83.8% | viability, T/C [32] 91.9% | viability, T/C [33] 86.9% | viability, T/C [34] 80.7% | viability, T/C [35] 95.8% | viability, T/C [36] 95.6%

CCN1CCN(Cc2ccc(Nc3ncc(F)c(-c4cc(F)c5nc(C)n(C(C)C)c5c4)n3)nc2)CC1 + CC(Nc1ncnc2nc[nH]c12)c1cc2cccc(Cl)c2c(=O)n1-c1ccccc1
inactive: viability, T/C (second compound 0.0316 µM, first compound 0.00316 µM) 87% | viability, T/C (second compound 0.0316 µM, first compound 0.01 µM) 101% | viability, T/C [1] 99.6% | viability, T/C [2] 86.1% | viability, T/C [3] 104% | viability, T/C [4] 92% | viability, T/C (second compound 0.1 µM, first compound 0.00316 µM) 87.8% | viability, T/C (second compound 0.1 µM, first compound 0.01 µM) 90.9% | viability, T/C [7] 103% | viability, T/C [8] 102% | viability, T/C [9] 105% | viability, T/C [10] 89.1% | viability, T/C (second compound 0.316 µM, first compound 0.00316 µM) 95.1% | viability, T/C (second compound 0.316 µM, first compound 0.01 µM) 102% | viability, T/C [13] 98.3% | viability, T/C [14] 101% | viability, T/C [15] 89.4% | viability, T/C [16] 81.2% | viability, T/C (second compound 1 µM, first compound 0.00316 µM) 102% | viability, T/C (second compound 1 µM, first compound 0.01 µM) 92.3% | viability, T/C [19] 93.8% | viability, T/C [20] 98.5% | viability, T/C [21] 94.6% | viability, T/C [22] 75.1% | viability, T/C (second compound 3.16 µM, first compound 0.00316 µM) 87.2% | viability, T/C (second compound 3.16 µM, first compound 0.01 µM) 99.3% | viability, T/C [25] 85.1% | viability, T/C [26] 102% | viability, T/C [27] 92.1% | viability, T/C [28] 79.5% | viability, T/C (second compound 10 µM, first compound 0.00316 µM) 95.5% | viability, T/C (second compound 10 µM, first compound 0.01 µM) 82.4% | viability, T/C [31] 87.4% | viability, T/C [32] 101% | viability, T/C [33] 96.9% | viability, T/C [34] 70.5%
> 1 µM: IC50 (second compound 0.0316 µM) | IC50 (second compound 0.1 µM) | IC50 (second compound 0.316 µM) | IC50 (second compound 1 µM) | IC50 (second compound 3.16 µM) | IC50 (second compound 10 µM)

Cn1ncc(Cl)c1-c1cc(C(=O)NC(CN)Cc2cccc(F)c2)sc1Cl (stereo not drawn) + CC(Nc1ncnc2nc[nH]c12)c1cc2cccc(Cl)c2c(=O)n1-c1ccccc1
inactive: viability, T/C [1] 101% | viability, T/C [2] 83.3% | viability, T/C [3] 60.1% | viability, T/C [4] 71.5% | viability, T/C [5] 71.7% | viability, T/C [6] 61.5% | viability, T/C [7] 95.7% | viability, T/C [8] 80% | viability, T/C [9] 64.9% | viability, T/C [10] 63.6% | viability, T/C [11] 70.2% | viability, T/C [12] 57% | viability, T/C [13] 90.5% | viability, T/C [14] 77.6% | viability, T/C [15] 56.5% | viability, T/C [16] 65.4% | viability, T/C [17] 59.8% | viability, T/C [18] 57.6% | viability, T/C [19] 87.5% | viability, T/C [20] 74.7% | viability, T/C [21] 58.2% | viability, T/C [22] 60.5% | viability, T/C [23] 55.6% | viability, T/C [24] 62.1% | viability, T/C [25] 87% | viability, T/C [26] 80.4% | viability, T/C [27] 51.4% | viability, T/C [28] 50.9% | viability, T/C [29] 60.7% | viability, T/C [30] 52.1% | viability, T/C [31] 92.3% | viability, T/C [32] 77% | viability, T/C [33] 60.5% | viability, T/C [34] 58.8% | viability, T/C [35] 62.8% | viability, T/C [36] 46.7%
> 10 µM: IC50 (second compound 0.0316 µM) | IC50 (second compound 0.1 µM) | IC50 (second compound 0.316 µM) | IC50 (second compound 1 µM) | IC50 (second compound 3.16 µM) | IC50 (second compound 10 µM)

Cn1nccc1Nc1nccc(-c2ccn(C(CO)c3ccc(Cl)c(F)c3)c(=O)c2)n1 (stereo not drawn) + CC(Nc1ncnc2nc[nH]c12)c1cc2cccc(Cl)c2c(=O)n1-c1ccccc1
> 10 µM: IC50 (second compound 0.0316 µM) | IC50 (second compound 0.1 µM) | IC50 (second compound 0.316 µM) | IC50 (second compound 1 µM) | IC50 (second compound 3.16 µM) | IC50 (second compound 10 µM)
inactive: viability, T/C [1] 94.3% | viability, T/C [2] 102% | viability, T/C [3] 89.8% | viability, T/C [4] 92.2% | viability, T/C [5] 92.9% | viability, T/C [6] 70.7% | viability, T/C [7] 90.2% | viability, T/C [8] 91.3% | viability, T/C [9] 96.1% | viability, T/C [10] 86.9% | viability, T/C [11] 80.7% | viability, T/C [12] 77.4% | viability, T/C [13] 93.4% | viability, T/C [14] 95.2% | viability, T/C [15] 101% | viability, T/C [16] 92.8% | viability, T/C [17] 86.9% | viability, T/C [18] 65.5% | viability, T/C [19] 97.8% | viability, T/C [20] 97.7% | viability, T/C [21] 98.5% | viability, T/C [22] 89.2% | viability, T/C [23] 93.6% | viability, T/C [24] 59.1% | viability, T/C [25] 97.4% | viability, T/C [26] 96.8% | viability, T/C [27] 89.2% | viability, T/C [28] 80.4% | viability, T/C [29] 82.2% | viability, T/C [30] 59.1% | viability, T/C [31] 90.9% | viability, T/C [32] 80.6% | viability, T/C [33] 91.2% | viability, T/C [34] 83.6% | viability, T/C [35] 76.4% | viability, T/C [36] 54.9%
